“Also recorded” adds a separate entry of the source. Structures can show the parent of a compound that is named as a salt. Where two headings read alike, the source gives them in different places. Values belong to the molecule of their own block, whether it stands above or below them.
Assays:
[1] = test system: iPSC-derived cortical glutamatergic neurons; test: Neurite outgrowth assay in iPSC-derived neurons; format: cell-based, human; conditions: for IC50: Homo sapiens, Neuron, 24 h, read-out: IC50 of neurite outgrowth inhibition
[2] = test system: TGFβ/SMAD signaling (SMAD2/3/4 complex), SBE-bla HEK 293T cells; test: SBE-bla antagonist assay; format: cell-based, human; conditions: for SBE Antagonist Efficacy: activity %, TGFβ1 only = 0, DMSO = -100
[3] = test system: SMAD2/3/4 signaling, SBE-bla HEK 293T cells; test: SBE-bla assay, activation by native TGFR ligands; format: cell-based, human; conditions: Figure 2A
[4] = test system: RAR pathway, RARE-luc C3RL4 cells; test: RAR-luc reporter gene assay; format: cell-based; conditions: 6 h
[5] = test system: TGFβ, WNT, RAR and SHH pathways; test: Profile across developmental pathways; format: cell-based; conditions: sodium dimethyldithiocarbamate at 10 μM
[6] = test system: WNT pathway, TCF/LEF-luc HEK293 cells; test: WNT-luc reporter gene assay; format: cell-based, human
[7] = test system: SHH pathway, Gli1-luc NIH/3T3 cells; test: SHH-luc reporter gene assay; format: cell-based
[8] = Homo sapiens, HEK-293T, read-out: IC50 in SBE-bla assay, primary screening

Molecule: Nc1ncn([C@@H]2O[C@H](CO)[C@@H](O)[C@H]2O)c(=O)n1 [5-Azacitidine]
inhibition of neurite outgrowth, in words ([1]; 24 h treatment, Figure 5D): inhibited neurite outgrowth

Molecule: CC(=O)[C@]1(O)Cc2c(O)c3c(c(O)c2[C@@H](O[C@H]2C[C@H](N)[C@H](O)[C@H](C)O2)C1)C(=O)c1ccccc1C3=O [idarubicin hydrochloride]
inhibition of neurite outgrowth, in words ([1]; 24 h treatment, Figure 5D): inhibited neurite outgrowth

Molecule: CN(C)C(=S)[S-].CN(C)C(=S)[S-].[Cu+2] [copper dimethyl dithiocarbamates]
IC50 ([2]; read-out: IC50 in SBE-bla assay, DTC cluster k35.18, Figure 3B): 1620 nM

Molecule: dibutyltin
fold less cytotoxic in SBE-bla HEK 293T cells than in NSCs (SBE-bla HEK 293T cells): 10 fold

Molecule: [F][Sn]([c]1ccccc1)([c]1ccccc1)[c]1ccccc1 [triphenyltin fluoride]
fold less cytotoxic in SBE-bla HEK 293T cells than in NSCs (SBE-bla HEK 293T cells): 10 fold

Molecule: CC[C@]1(O)C[C@@H]2CN(CCc3c([nH]c4ccccc34)[C@@](C(=O)OC)(c3cc4c(cc3OC)N(C)[C@H]3[C@@](O)(C(=O)OC)[C@H](OC(C)=O)[C@]5(CC)C=CCN6CC[C@]43[C@@H]65)C2)C1 [vinblastine sulfate]
inhibition of neurite outgrowth, in words ([1]; 24 h treatment, Figure 5D): inhibited neurite outgrowth

Molecule: phenylmercuric acetate
fold less cytotoxic in SBE-bla HEK 293T cells than in NSCs (SBE-bla HEK 293T cells): 10 fold

Molecule: TGFβ2: native TGFR ligand
EC50 of activation of SBE-bla activity [3]: 0.11 ng/mL

RAR Antagonist IC50 ([4]; retinol stimulated): Inactive
Molecule: CCCCN(CCCC)C(=S)[S-].[Na+] [Sodium dibutylcarbamodithioate]
SBE Antagonist IC50 ([2]; TGFβ1-induced SBE-bla activity, HEK 293T, 5 h, Tables 2 and 3): Inactive | SBE Antagonist Efficacy [2]: Inactive | RAR Antagonist Efficacy ([4]; retinol stimulated): Inactive | inhibition of developmental pathways, in words [5]: inactive | WNT Antagonist Efficacy ([6]; WNT-3a stimulated, 24 h): Inactive | WNT Antagonist IC50 ([6]; WNT-3a stimulated, 24 h): Inactive | SHH Antagonist Efficacy ([7]; conditioned medium, 24 h): Inactive | SHH Antagonist IC50 ([7]; conditioned medium, 24 h): Inactive

Molecule: Cc1nc(Nc2ncc(C(=O)Nc3c(C)cccc3Cl)s2)cc(N2CCN(CCO)CC2)n1 [dasatinib]
IC50 [2, 8]: 260 nM | inhibition of neurite outgrowth, in words ([1]; 24 h treatment, Figure 5D): did not inhibit neurite outgrowth; also recorded: didn’t inhibit neurite outgrowth

Molecule: CN1C(=O)N(c2ccccc2Br)Cc2cnc(Nc3ccc4c(c3)OCC(CO)O4)nc21 (stereo not drawn) [PharmaGSID_48519]
inhibition of neurite outgrowth, in words [1]: did not inhibit neurite outgrowth; also recorded: didn’t inhibit neurite outgrowth

Molecule: CN1CC[C@H](c2c(O)cc(O)c3c(=O)cc(-c4ccccc4Cl)oc23)[C@H](O)C1 [flavopiridol hydrochloride, reference compound]
IC50 [2, 8]: 20 nM | inhibition of neurite outgrowth, in words ([1]; 24 h treatment, Figure 5D): inhibited neurite outgrowth

Molecule: CN(C)C(=S)SSC(=S)N(C)C [Thiram]
IC50 [1]: 100 nM

Molecule: CC(C)C[C@H](NC(=O)[C@H](Cc1ccccc1)NC(=O)c1cnccn1)B(O)O [bortezomib]
inhibition of neurite outgrowth, in words ([1]; 24 h treatment, Figure 5D): inhibited neurite outgrowth

Molecule: S=C(SSC(=S)N1CCCCC1)N1CCCCC1 [dicyclopentamethylenethiuram, dicyclopentamethylenethiuram disulfide]
IC50 ([2]; Homo sapiens, HEK-293T, read-out: IC50 in SBE-bla assay, DTC cluster k35.18): 580 nM | IC50 [1]: 820 nM

IC50 ([4]; read-out: RAR Antagonist IC50): 15300 nM
Molecule: CCN(CC)C(=S)S [Sodium diethyldithiocarbamate]
IC50 ([2]; Homo sapiens, HEK-293T, 5 h, read-out: SBE Antagonist IC50): 11500 nM | SBE Antagonist Efficacy [2]: −58.53% | RAR Antagonist Efficacy ([4]; retinol stimulated): −113.16% | IC50 ([6]; Homo sapiens, HEK293, 24 h, read-out: WNT Antagonist IC50): 3690 nM | WNT Antagonist Efficacy ([6]; WNT-3a stimulated, 24 h): −74.76% | IC50 ([7]; Mus musculus, NIH3T3, 24 h, read-out: SHH Antagonist IC50): 8920 nM | SHH Antagonist Efficacy ([7]; conditioned medium, 24 h): −96.63%

Molecule: TGFβ1: native TGFR ligand, human TGFβ1
EC50 of activation of SBE-bla activity [3]: 0.11 ng/mL

Molecule: COc1cccc2c1C(=O)c1c(O)c3c(c(O)c1C2=O)C[C@@](O)(C(=O)CO)C[C@@H]3O[C@H]1C[C@H](N2CCO[C@H](OC)C2)[C@H](O)[C@H](C)O1 [nemorubicin]
inhibition of neurite outgrowth, in words [1]: inhibited neurite outgrowth

Molecule: C=CC(=O)Nc1cc2c(Nc3ccc(F)c(Cl)c3)ncnc2cc1OCCCN1CCOCC1 [canertinib]
inhibition of neurite outgrowth, in words ([1]; 24 h treatment, Figure 5D): inhibited neurite outgrowth

Molecule: CCN(CC)C(=S)SSC(=S)N(CC)CC [disulfiram]
IC50 [1]: 180 nM

Molecule: TGFβ3: native TGFR ligand
EC50 of activation of SBE-bla activity [3]: 0.11 ng/mL
